Strand notation (5' to 3'): a small letter for the sugar, then the base; units joined by * are phosphorothioate-linked, units joined directly phosphodiester-linked; [ ] holds rarer units or linkages, { } end groups; capitals alone tell only the bases. d = 2'-deoxy (DNA)
Molecular target: T1, human type II phospholipase A2 (Homo sapiens, UniProt P14555)
T1 sequence (P14555 21-144): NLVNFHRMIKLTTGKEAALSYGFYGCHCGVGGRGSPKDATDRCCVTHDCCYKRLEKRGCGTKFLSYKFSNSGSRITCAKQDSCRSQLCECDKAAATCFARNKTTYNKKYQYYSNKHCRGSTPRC
Test: Human type II phospholipase A2 enzyme assay (3H-oleic acid labelled E. coli substrate)
Format: biochemical
Conditions: not given

“ISIS 3628: GGAGCCCTfCTATACCCACCC, phosphorothioate, SEQ ID NO 78” was tested, and the “I.C.50 relative to ISIS 3196 (fold higher)” value was “approximately 10 fold”.
In the case of “ISIS 3631: AGGTCGAGGAGTGGTCTGAGC, phosphorothioate, SEQ ID NO 81 (dA*dG*dG*dT*dC*dG*dA*dG*dG*dA*dG*dT*dG*dG*dT*dC*dT*dG*dA*dG*dC)”, the “I.C.50 relative to ISIS 3196 (fold higher)” value was “approximately 10 fold”.

Same assay, conditions: 1 μM; Table 4

Point of comparison: “ISIS 3479: CCGGAGTACAGGTTCTTTGGT, phosphorothioate, SEQ ID NO 75”, “% Inhibition (1 μM)” value 42.3%. Against it:
- ISIS 3477: GTGGAGGAGAGCAGTAGAAGG, phosphorothioate, SEQ ID NO 73 (dG*dT*dG*dG*dA*dG*dG*dA*dG*dA*dG*dC*dA*dG*dT*dA*dG*dA*dA*dG*dG) — higher, 54.7%
- ISIS 3478: TGGTTAAGCACGGAGTTGAGG, phosphorothioate, SEQ ID NO 74 (dT*dG*dG*dT*dT*dA*dA*dG*dC*dA*dC*dG*dG*dA*dG*dT*dT*dG*dA*dG*dG) — lower, 26.4%
- ISIS 3480: TTGCTTTATTCAGAAGAGACC, phosphorothioate, SEQ ID NO 76 (dT*dT*dG*dC*dT*dT*dT*dA*dT*dT*dC*dA*dG*dA*dA*dG*dA*dG*dA*dC*dC) — lower, 24.5%
- ISIS 3481: TTTTTGATTTGCTAATTGCTT, phosphorothioate, SEQ ID NO 77 (dT*dT*dT*dT*dT*dG*dA*dT*dT*dT*dG*dC*dT*dA*dA*dT*dT*dG*dC*dT*dT) — lower, 2.2%
- ISIS 3628: GGAGCCCTfCTATACCCACCC, phosphorothioate, SEQ ID NO 78 — lower, 13.6%
- ISIS 3629: CACCCCTCGTTGCTGAGTCCC, phosphorothioate, SEQ ID NO 79 (dC*dA*dC*dC*dC*dC*dT*dC*dG*dT*dT*dG*dC*dT*dG*dA*dG*dT*dC*dC*dC) — lower, 20.5%
- ISIS 3630: TCTCATACCCTCCCTCCCTAC, phosphorothioate, SEQ ID NO 80 (dT*dC*dT*dC*dA*dT*dA*dC*dC*dC*dT*dC*dC*dC*dT*dC*dC*dC*dT*dA*dC) — lower, 17.6%
- ISIS 3631: AGGTCGAGGAGTGGTCTGAGC, phosphorothioate, SEQ ID NO 81 (dA*dG*dG*dT*dC*dG*dA*dG*dG*dA*dG*dT*dG*dG*dT*dC*dT*dG*dA*dG*dC) — lower, 20.7%
- ISIS 3632: CCAGGAGAGGTCGGTAAGGCG, phosphorothioate, SEQ ID NO 82 (dC*dC*dA*dG*dG*dA*dG*dA*dG*dG*dT*dC*dG*dG*dT*dA*dA*dG*dG*dC*dG) — lower, 29.2%
- ISIS 3633: GTAGGGATGGGAGTGAAGGAG, phosphorothioate, SEQ ID NO 83 (dG*dT*dA*dG*dG*dG*dA*dT*dG*dG*dG*dA*dG*dT*dG*dA*dA*dG*dG*dA*dG) — higher, 58.5%
- ISIS 3659: TGCTCCTCCTTGGTGGCTCTC, phosphorothioate, SEQ ID NO 84 (dT*dG*dC*dT*dC*dC*dT*dC*dC*dT*dT*dG*dG*dT*dG*dG*dC*dT*dC*dT*dC) — lower, 38.2%
- ISIS 3663: GTCTGCTGGGTGGTCTGAACT, phosphorothioate, SEQ ID NO 85 — lower, 16.3%
- ISIS 3665: GGACTGGCCTAGCTCCTCTGC, phosphorothioate, SEQ ID NO 86 (dG*dG*dA*dC*dT*dG*dG*dC*dC*dT*dA*dG*dC*dT*dC*dC*dT*dC*dT*dG*dC) — higher, 45.8%
- ISIS 3669: GGTGACAAATGCAGATGGACT, phosphorothioate, SEQ ID NO 87 (dG*dG*dT*dG*dA*dC*dA*dA*dA*dT*dG*dC*dA*dG*dA*dT*dG*dG*dA*dC*dT) — lower, 34.7%
- ISIS 3671: TAGGAGGGTCTTCATGGTAAG, phosphorothioate, SEQ ID NO 88 (dT*dA*dG*dG*dA*dG*dG*dG*dT*dC*dT*dT*dC*dA*dT*dG*dG*dT*dA*dA*dG) — higher, 49.3%
- ISIS 3676: AGCTCTTACCAAAGATCATGA, phosphorothioate, SEQ ID NO 89 (dA*dG*dC*dT*dC*dT*dT*dA*dC*dC*dA*dA*dA*dG*dA*dT*dC*dA*dT*dG*dA) — lower, 24.5%
- ISIS 3679: AGTAGGCCTGGAAGGAAATTT, phosphorothioate, SEQ ID NO 90 (dA*dG*dT*dA*dG*dG*dC*dC*dT*dG*dG*dA*dA*dG*dG*dA*dA*dA*dT*dT*dT) — lower, 30.3%

Same assay, conditions: increasing E. coli substrate; ISIS 3481 at 0.2 μM and 2 μM

With “ISIS 3481: TTTTTGATTTGCTAATTGCTT, phosphorothioate, SEQ ID NO 77 (dT*dT*dT*dT*dT*dG*dA*dT*dT*dT*dG*dC*dT*dA*dA*dT*dT*dG*dC*dT*dT)” the “effect on substrate kinetics” value was “did not modify the substrate kinetics”.

— patent publication US20070015723A1, “Antiviral oligonucleotides having a conserved G4 core sequence” (priority 1992, published 2007)
